Results as given in the supplement of paper PMC10307832.

How the values were obtained:
Test in all cases: relative viability (nuclei count vs DMSO), 5 days (fraction); higher = more cells survive
Entinostat + Palbociclib = compound: Nc1ccccc1NC(=O)c1ccc(CNC(=O)OCc2cccnc2)cc1 [Entinostat] + CC(=O)c1c(C)c2cnc(Nc3ccc(N4CCNCC4)cn3)nc2n(C2CCCC2)c1=O [Palbociclib] (partner 0.5 µM)
Procedure, shortened: (§1)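 Lung cancer cell lines were pin-tool dosed in 1536-well plates on the day after seeding, with either a lone drug or a fixed anchor-drug dose plus five library-drug doses (not always all listed) in √10 steps. Nuclei were counted on 4× images after 5 days. Relative viability is the ratio of treated-well to vehicle-well nuclei counts, with each value a median of duplicate plates.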

SGI-1776 + Linsitinib = compound: CN1CCC(CNc2ccc3ncc(-c4cccc(OC(F)(F)F)c4)n3n2)CC1 [SGI-1776] + C[C@]1(O)C[C@@H](c2nc(-c3ccc4ccc(-c5ccccc5)nc4c3)c3c(N)nccn32)C1 [Linsitinib] (partner 1 µM)
Procedure, shortened: as §1

SGI-1776 + Palbociclib = compound: CN1CCC(CNc2ccc3ncc(-c4cccc(OC(F)(F)F)c4)n3n2)CC1 [SGI-1776] + CC(=O)c1c(C)c2cnc(Nc3ccc(N4CCNCC4)cn3)nc2n(C2CCCC2)c1=O [Palbociclib] (partner 0.5 µM)
Procedure, shortened: as §1

[1] = compound: C1COCCN1C2=NC(=NC3=C2OC4=C3C=CC=N4)C5=CC(=CC=C5)NC(=O)C6=CN=C(C=C6)N + NC(=O)Nc1cc(-c2cccc(F)c2)sc1C(=O)N[C@H]1CCCNC1 [AZD7762] (partner 0.2 µM)
Procedure, shortened: as §1

Row | Cell Line | relative viability (Entinostat + Palbociclib; first compound 0.02 µM) | relative viability (Entinostat + Palbociclib; first compound 0.06325 µM) | relative viability (Entinostat + Palbociclib; first compound 0.2 µM) | relative viability (Entinostat + Palbociclib; first compound 0.6325 µM) | relative viability (Entinostat + Palbociclib; first compound 2 µM) | relative viability (SGI-1776 + Linsitinib; first compound 0.08 µM) | relative viability (SGI-1776 + Linsitinib; first compound 0.8 µM) | relative viability (SGI-1776 + Linsitinib; first compound 2.53 µM) | relative viability (SGI-1776 + Linsitinib; first compound 8 µM) | relative viability (SGI-1776 + Palbociclib; first compound 0.08 µM) | relative viability (SGI-1776 + Palbociclib; first compound 0.8 µM) | relative viability (SGI-1776 + Palbociclib; first compound 2.53 µM) | relative viability (SGI-1776 + Palbociclib; first compound 8 µM) | relative viability ([1]; first compound 0.02 µM) | relative viability ([1]; first compound 0.06325 µM) | relative viability ([1]; first compound 0.2 µM) | relative viability ([1]; first compound 0.6325 µM) | relative viability ([1]; first compound 2 µM)
1 | LOU-NH91 | 0.466 | 0.581 | 0.532 | 0.531 | 0.508 | 1.06 | 1.03 | 0.955 | 0.666 | 0.647 | 0.552 | 0.536 | 0.537 | 0.733 | 0.793 | 0.734 | 0.748 | 0.59
2 | LU99A | 0.419 | 0.416 | 0.376 | 0.388 | 0.302 | 0.573 | 0.54 | 0.545 | 0.432 | 0.415 | 0.441 | 0.407 | 0.381 | 0.433 | 0.416 | 0.233 | 0.319 | 0.295
3 | LXF-289 | 0.577 | 0.606 | 0.575 | 0.509 | 0.514 | 0.992 | 0.98 | 1.01 | 0.97 | 0.593 | 0.583 | 0.619 | 0.602 | 1.08 | 1.3 | 1.08 | 1.09 | 0.67
4 | NCI-H23 | 0.568 | 0.661 | 0.507 | 0.509 | 0.283 | 0.724 | 0.541 | 0.517 | 0.411 | 0.507 | 0.574 | 0.421 | 0.482 | 0.241 | 0.23 | 0.24 | 0.174 | 0.216
5 | NCI-H322M | 0.499 | 0.533 | 0.495 | 0.546 | 0.516 | 1.01 | 1.04 | 0.933 | 0.774 | 0.515 | 0.508 | 0.476 | 0.451 | 0.543 | 0.49 | 0.575 | 0.56 | 0.516
6 | NCI-H358 | 0.134 | 0.14 | 0.17 | 0.127 | 0.125 | 0.725 | 0.756 | 0.758 | 0.388 | 0.112 | 0.141 | 0.129 | 0.113 | 0.442 | 0.475 | 0.443 | 0.465 | 0.409
7 | NCI-H441 | 0.218 | 0.231 | 0.238 | 0.171 | 0.129 | 0.506 | 0.588 | 0.645 | 0.354 | 0.204 | 0.219 | 0.235 | 0.164 | 0.96 | 1.17 | 1.1 | 1.09 | 0.738
8 | NCI-H460 | 0.112 | 0.0634 | 0.0456 | 0.0231 | 0.0171 | 0.683 | 0.859 | 0.785 | 0.459 | 0.243 | 0.133 | 0.121 | 0.151 | 0.609 | 0.784 | 0.587 | 0.653 | 0.359
9 | NCI-H647 | 0.318 | 0.343 | 0.337 | 0.0924 | 0.0625 | 1.29 | 1.16 | 0.978 | 0.739 | 0.506 | 0.367 | 0.319 | 0.258 | 0.481 | 0.627 | 0.373 | 0.527 | 0.359
10 | NCI-H650 | 0.412 | 0.349 | 0.361 | 0.257 | 0.167 | 1.07 | 0.952 | 0.686 | 0.727 | 0.39 | 0.349 | 0.312 | 0.33 | 1.08 | 1 | 0.993 | 0.809 | 0.852
11 | NCI-H727 | 0.596 | 0.702 | 0.628 | 0.657 | 0.649 | 0.254 | 0.26 | 0.346 | 0.241 | 0.583 | 0.679 | 0.693 | 0.51 | 0.528 | 0.678 | 0.812 | 0.602 | 0.755
12 | NCI-H838 | 0.254 | 0.224 | 0.28 | 0.236 | 0.171 | 1.03 | 0.982 | 1.02 | 0.684 | 0.228 | 0.222 | 0.204 | 0.155 | 0.95 | 0.967 | 0.999 | 0.827 | 0.755
13 | NCI-H1355 | 0.416 | 0.417 | 0.332 | 0.328 | 0.25 | 0.92 | 0.899 | 0.792 | 0.729 | 0.419 | 0.433 | 0.413 | 0.345 | 0.875 | 0.765 | 0.713 | 0.66 | 0.539
14 | NCI-H1395 | 0.602 | 0.773 | 0.802 | 0.603 | 0.523 | 1.19 | 1.08 | 0.938 | 0.746 | 0.615 | 0.588 | 0.611 | 0.457 | 0.387 | 0.348 | 0.374 | 0.371 | 0.372
15 | NCI-H1437 | 0.236 | 0.182 | 0.204 | 0.178 | 0.122 | 1.03 | 1.03 | 0.952 | 0.452 | 0.311 | 0.315 | 0.257 | 0.261 | 1.1 | 1.07 | 1.12 | 1.13 | 0.91
16 | NCI-H1651 | 0.549 | 0.535 | 0.617 | 0.533 | 0.45 | 1.01 | 0.925 | 0.938 | 0.566 | 0.504 | 0.497 | 0.522 | 0.439 | 0.507 | 0.563 | 0.476 | 0.461 | 0.36
